In US20230123863A1, “A GLIA CELL AND NEURON CO-CULTURE SYSTEM AND METHOD” (National Yang-Ming University, priority 2020, published 2023):

What was measured:
[1] = system: Primary rat cortical GN mix cultures; test: NMDA-induced neurotoxicity in primary cortical glia-neuron (GN) mix culture, MAP2 and TUNEL staining; assay type: cell-based; conditions: 9 DIV, 30 min pretreatment with 0.1 μM 14,15-EET or 10 μM AUDA, 24 h
Description: Primary cortical NE cultures were prepared from embryonic day 17 SD fetal rats. The cultures were maintained in Neurobasal™ medium, and 9-10 days in vitro (DIV) culture was used for the study. Primary astrocyte cultures were prepared from SD rat pups at P1-2, with the purified astrocytes grown in 50% DMEM/50% Neurobasal™ medium containing heparin-binding EGF-like growth factor (HBEGF) or GNCM wherein GCM and NM are at a ratio of 1:1. Primary glia-neuron mix cultures were prepared from P0 rat brains. The harvested cerebral cortex was mechanically triturated in glia culture medium (GCM), comprising DMEM supplemented with 10% FBS. The mixture was stationed at room temperature for 1 minute, and the supernatant centrifuged at 1,500 rpm to obtain the cell pellet. The pellet was resuspended in GCM and seeded onto 24-well plates coated with poly-L-lysine (0.1 mg/mL). The culture medium was replaced with an embodiment of the GNCM medium of the present invention comprising a 1:1 mixture of GCM and B-27-containing Neurobasal™ 1 hour after the initial seeding.
The day of cell plating was considered as 0 DIV, and 9-10 DIV cultures were used for the experiments.
Primary rat cortical GN mix and NE cultures at 9 days in vitro were pretreated with 0.1 μM 14,15-EET, 10 μM 12-(3-adamantan-1-yl-ureido)-dodecanoic acid (AUDA), or vehicle for 30 min, and then treated with or without 14,15-epoxyeicosa-5(Z)-enoic acid (14,15-EEZE) (EZ) or N-methyl-D-aspartate (NMDA). Representative immunofluorescent images of MAP2 and TUNEL staining in GN mix and NE cultures were treated as indicated for 24 h. Total cell nuclei were counterstained with DAPI. Scale bar=50 μm.
Neuron dendrites were marked with MAP2 and colored in red, cell nuclei were marked with DAPI and colored in blue, while cell death was marked with TUNEL and colored in green.
Both MAP2^+ neurite density and TUNEL^+ cells were normalized by the total DAPI number in each quantified microscopic field.

[2] = system: dorsal hippocampus of male SD adult rats; test: kainic acid i.c.v. injection-induced hippocampal damage, NeuN, MAP2 and GLT-1 immunostaining; assay type: in vivo, rat
Description: To validate the in vitro results, the effect of sEH inhibition on neuronal loss in the hippocampus after excitotoxic insult was investigated in vivo. First examined was the effect of CNS administration of AUDA on kainic acid (KA), an epileptic seizure-inducing substance, i.c.v. injection-induced hippocampal damage in male SD adult rats. The extent of neuronal damage in the dorsal hippocampus was examined 24 h after the KA injection by immunostaining with NeuN and MAP2 for neuronal nuclei and dendrites, respectively.
Eight-week-old male SD rats were subjected to unilateral i.c.v. injection of saline, KA, or KA with the sEH inhibitor AUDA. Rat brains were harvested 24 h after the injection for immunohistochemistry.
NeuN^+ cells of each hippocampal subregion were determined by counting the number of NeuN^+/DAPI^+ cells and then normalized with respective saline treatment group. MAP2 area was determined by the percentage of the immunoreactive area in each hippocampal region of interest and then normalized with the respective saline treatment group. […] Scale bar=100 μm. When compared with FIGS. 20-23, it can be seen that the results of in vivo trials were more similar to those of the GN culture than the NE culture.
FIG. 27 is a quantitative analysis of images in FIG. 25. GLT-1 area was determined by the percentage of the immunoreactive area in each hippocampal region of interest and then normalized with the respective saline treatment group. Note that GLT-1 immunoreactivity was depleted in the stratum pyramidale (SP) and stratum lucidum (SL) layers of CA3 in the KA treatment group, and the effect was attenuated by the AUDA pretreatment.

[3] = system: Oligodendrocytes; test: excitotoxic NMDA treatment of oligodendrocytes in GN mix culture (RIP/NF200 staining); assay type: cell-based, mouse; conditions: NM:GCM 1:1 medium, 5 μM NMDA at 14 DIV for 24 hour
Description: Oligodendrocytes obtained from mouse primary neonatal brain cells cultivated using the GN culture compositions provided in table 4 were treated with 5 μM NMDA at 14 DIV for 24 hour.
The cell nuclei are characterized by immunostaining shown in blue. […] Moreover, the response of oligodendrocytes to excitotoxic NMDA treatment can further mimic excitotoxicity-induced demyelination.

[4] = target: T1, aryl hydrocarbon receptor (AHR) (Mus musculus, UniProt P30561); conditions: WT mice, cited from earlier work
T1 construct: the brains of adult mice were used to study the effect of aryl hydrocarbon receptor modulation; from tissue; host or cells: adult mouse brain, peri-infarct cortex (in vivo)
T1 sequence (P30561 10-848): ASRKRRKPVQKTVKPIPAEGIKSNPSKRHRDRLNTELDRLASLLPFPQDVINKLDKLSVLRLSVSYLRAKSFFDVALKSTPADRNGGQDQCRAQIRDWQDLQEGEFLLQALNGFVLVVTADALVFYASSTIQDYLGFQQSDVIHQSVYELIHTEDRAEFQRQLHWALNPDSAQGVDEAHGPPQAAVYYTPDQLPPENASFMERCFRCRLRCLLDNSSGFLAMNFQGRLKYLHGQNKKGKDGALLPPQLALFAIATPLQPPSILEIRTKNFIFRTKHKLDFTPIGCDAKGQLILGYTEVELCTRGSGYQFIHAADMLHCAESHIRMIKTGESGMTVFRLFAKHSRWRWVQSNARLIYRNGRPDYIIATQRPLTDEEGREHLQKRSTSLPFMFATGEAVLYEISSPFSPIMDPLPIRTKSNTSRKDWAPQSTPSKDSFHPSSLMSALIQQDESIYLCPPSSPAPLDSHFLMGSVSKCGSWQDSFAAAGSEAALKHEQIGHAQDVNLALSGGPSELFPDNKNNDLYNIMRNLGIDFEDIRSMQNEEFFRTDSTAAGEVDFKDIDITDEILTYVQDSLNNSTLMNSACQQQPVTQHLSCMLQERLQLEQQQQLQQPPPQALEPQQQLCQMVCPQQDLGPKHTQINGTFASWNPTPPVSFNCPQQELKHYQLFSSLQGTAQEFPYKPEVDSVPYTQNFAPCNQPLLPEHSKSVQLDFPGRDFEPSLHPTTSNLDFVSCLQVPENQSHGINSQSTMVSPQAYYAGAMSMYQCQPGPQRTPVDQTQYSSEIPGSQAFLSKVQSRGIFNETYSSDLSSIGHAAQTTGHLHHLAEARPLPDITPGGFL

[5] = system: rat cerebral cortex cells; test: LPS neuroinflammation in cerebral cortex cells cultured in the media of Table 3; assay type: cell-based; conditions: for percentages of MAP2 positive cells in the total population (neurons): 1 μg/mL LPS for 24 hours on day 13
Description: The efficacies of simulating in vivo cell morphology, cell interactions and responses to stimuli in vitro using mGNCM of different ratios of modified neuron medium (mNM) and glia culture medium (GCM) were compared, 1:1:, 2:1 and GCM only groups, and the GCM only group comprising only GCM and 10% FBS as shown in Table 3 above.
The effects of neuroinflammation simulation of rat cerebral cortex cells grown in vitro using the three embodiments of mGNCM of Table 3 were examined. Cells obtained from rat cerebral cortex were cultured in vitro for 13 days using the three culture media above, then treated with 1 μg/mL of lipopolysaccharides (LPS) for 24 hours on day 13 to trigger inflammation. Following LPS treatment, immunostaining was performed to observe cell population, morphology, and response to inflammatory stimulus.
The immunostaining images of FIG. 5 show neuronal population and response to LPS stimulation, wherein CTL represents control groups (not subjected to LPS treatment) and LPS represents groups treated with LPS to induce neuroinflammation. The images show astrocyte cytoskeleton marked with GFAP and colored in red, neuron dendrites marked with MAP2 and colored in green, as well as cell nuclei marked with DAPI and colored in blue. FIGS. 5A1-5A3 and 5B1-5B3 show cells cultured with GCM only, FIGS. 5C1-5C3 and 5D1-5D3 show cells cultured with 1:1 mNM and GCM, while FIGS. 5E1-5E3 and 5F1-5F3 show cells cultured with 2:1 mNM and GCM. The GCM only group comprises fewer neurons, and the cells are smaller and unhealthier in both CTL and LPS treatment groups.

[6] = system: mouse hippocampi; test: intraperitoneal LPS injection, astrocyte and microglia plasticity in hippocampi; assay type: in vivo; conditions: LPS i.p. for 7 days at 3 mg/kg body weight per injection, vs saline
Description: To validate the results of in vitro LPS treatment of the present invention, LPS was injected intraperitoneally in mice for 7 days at 3 mg/kg body weight per injection and the astrocyte and microglia plasticity in mouse hippocampi examined. […] Astrocytes were marked with GFAP and colored in green, while cell nuclei were marked with DAPI and colored in blue.
Microglia were marked with Iba-1 and colored in green, while cell nuclei were marked with DAPI and colored in blue.

[7] = system: cells extracted from rat cerebral cortex; test: LPS neuroinflammation and cell type population in glia cell and neuron co-culture in the media of Table 4; assay type: cell-based
Description: To further examine the effects of various embodiments of mGNCM with different ratios of mNM and GCM of the present invention on cell type population and morphology of rat glia cells and neurons co-culture, six cell culture media were prepared to the specifications of Table 4.
On postnatal day 0 (P0), cells extracted from rat cerebral cortex were inoculated in each of the cell culture media of Table 4. Following 14 days of in vitro cultivation, immunostaining was performed on the control groups (CTL) to aid in the observation of cell type ratios, specifically of neurons, astrocytes, and microglia, and oligodendrocytes as well as cell morphology. Cultures of the LPS groups (LPS) were subjected to inflammatory stimulation via 1 μg/mL LPS at 13 days in vitro. After another 24 hours, the LPS groups were subjected to immunostaining as well, for the observation of cell morphology and cell count.

[8] = DGh and CA3, unilateral i.c.v. injection, 24 h after injection
[9] = DGh and CA3, KA i.c.v. vs saline, 24 h
[10] = TMF 5 mg/kg/day intraperitoneally, 48 h after MCAO
[11] = all groups except for the GCM only group, 1 μg/mL LPS, 24 hours

Molecule: CCCCCC1OC1CC=CCC=CCC=CCCCC(=O)O (stereo not shown) [14,15-EET, 14,15-epoxyeicosatrienoic acid]
- NMDA-induced MAP2+ neurite reduction [1]: significantly attenuated
- NMDA-induced cell death (TUNEL+ cells) [1]: significantly attenuated

Molecule: O=C(O)CCCCCCCCCCCNC(=O)NC12CC3CC(CC(C3)C1)C2 [AUDA, 12-(3-adamantan-1-yl-ureido)-dodecanoic acid]
- KA-induced MAP2+ dendrite damage [2, 8]: significantly attenuated
- KA-induced NeuN+ cell loss [2, 8]: significantly attenuated
- KA-induced depletion of GLT-1 immunoreactivity ([2]; SP and SL layers of CA3, AUDA pretreatment): attenuated
- NMDA-induced MAP2+ neurite reduction [1]: significantly attenuated
- NMDA-induced cell death (TUNEL+ cells) [1]: significantly attenuated

Molecule: C=C(C)[C@H]1CN[C@H](C(=O)O)[C@H]1CC(=O)O [KA, kainic acid]
- MAP2+ dendrite area [2, 9]: significantly reduced
- NeuN+ neurons [2, 9]: significantly reduced
- GLT-1 immunoreactivity ([2]; SP and SL layers of CA3, KA treatment group): depleted

Molecule: CN[C@H](CC(=O)O)C(=O)O [NMDA, N-methyl-D-aspartate]
- oligodendrocyte process extension and arborization [3]: disrupts

Molecule: COc1ccc(-c2cc(=O)c3cc(OC)ccc3o2)c(OC)c1 [TMF, 6,2′,4′-trimethoxyflavone]
- GFAP-positive astrogliosis at the peri-infarct cortex after MCAO [4, 10]: markedly decreased
- Iba1-positive microgliosis at the peri-infarct cortex after MCAO [4, 10]: markedly decreased
- AHR immunoreactivity colocalized within Iba1-positive microglia and GFAP-positive astrocytes after MCAO ([4]; TMF-treated vs vehicle-treated, peri-infarct cortex): markedly decreased

Molecule: lipopolysaccharides [LPS]
- astrocyte hypertrophy (GFAP) ([5]; 1:1 group and 2:1 group, 1 μg/mL LPS for 24 hours): can be found
- microglia cell density and cell size (Iba1) ([5]; 1:1 group, 1 μg/mL LPS for 24 hours): marked increase
- percentages of MAP2 positive cells in the total population (neurons) ([5]; 1:1 group): induces neuronal loss
- percentages of MAP2 positive cells in the total population (neurons) ([5]; GCM only and 2:1 groups): not affected in this way
- astrocyte hypertrophy (GFAP) ([5]; GCM only group, 1 μg/mL LPS for 24 hours): not observed
- astrocyte plasticity (GFAP) in hippocampal CA1 and CA3 [6]: induced astrocyte hypertrophy and proliferation
- microglia plasticity (Iba-1) in hippocampal CA1 [6]: induced microglial hypertrophy and proliferation
- Iba1 positive area per cell, control vs LPS groups ([7]; 1:1, 2:1, and 4:1 groups, 1 μg/mL LPS, 24 hours): significant differences
- percentage of neurons in total cells (MAP2-circled cells in total DAPI) ([7]; 2:1 mGNCM group, 1 μg/mL LPS, 24 hours): significant neuronal loss
- microglia morphology (Iba1) [7, 11]: induces microglial hypertrophy (microgliosis)
- percentage of neurons in total cells (MAP2-circled cells in total DAPI) [7, 11]: reduced
- oligodendrocyte (OL) cell density ([7]; different groups of GN mix cultures, 1 μg/ml LPS): does not affect
- percentage of astrocytes in total cells (GFAP-circled cells in total DAPI) ([7]; groups of Table 4, 1 μg/mL LPS, 24 hours): does not cause significant proliferation or death of astrocytes
- oligodendrocyte process shrinkage ([7]; mNM:GCM 0.5:1 and 1:1 media, 1 μg/ml LPS): can be observed
- percentage of microglia in total cells (Iba1 positive cells in total DAPI) ([7]; mNM:GCM 1:1 medium only, 1 μg/mL LPS, 24 hours): induces significant microglia proliferation
- microglia number (Iba1 images) ([7]; mNM:GCM 2:1 co-culture system, 1 μg/mL LPS, 24 hours): induces an increase of microglia
- astrocyte morphology (GFAP) ([7]; media of Table 4, 1 μg/mL LPS at 13 DIV, 24 hours): induces astrocyte hypertrophy and process arborization
